From patent US20240103005A1, “N-ACRYLOYLINDOLES AND METHODS OF USE” (The University of Hong Kong, priority 2022, published 2024) come the findings set out here.

In one series the test system is HepG2 cells. Put plainly: MTT cell viability assay. It counts as cell-based. On the procedure:
MTT Cell Viability Assay of Cells Treated with NAIA-5
HepG2 cells were plated on 96-well plates (Corning, 3904) at 30,000 cells per well in 100 μL of complete medium and allowed to grow overnight. The cells were then incubated with DMSO solvent control or NAIA-5 at indicated concentrations for 1 h. The treated cells were then added with 10 μL of MTT solution in PBS (5 mg/mL) and incubated in dark at 37° C. with 5% CO2 for 4 h. After that, 100 μL of SDS solution in PBS ([…] with 0.01M HCl) was added for cell lysis. The plates were kept in dark overnight and cell viability were assayed by the absorption at 580 nm on Perkin Elmer Victor 3 ([…]).
(In general: Tetrazolium dyes change colour on reduction, which living cells bring about.)

A further series has as its system HepG2 cell lysates. Put plainly: MS-based ABPP to identify liganded cysteines in HepG2 cell lysates. It is filed as biochemical, human. Conditions: 10 μM, 1 h. As for the experimental part: MS-Based ABPP Experiments to Identify Liganded Cysteines in HepG2 Cell Lysates by NAIA-5 or IAA.
HepG2 cells were lysed in PBS by sonication. After BCA assay and protein normalization, HepG2 cell lysates in PBS (2 mg/mL, 2 mL) were incubated with NAIA-5 and IAA (10 μM), respectively, at room temperature for 1 h with vortexing. Then, the samples were incubated with a master mix solution for CuAAC reaction, containing CuSO4, TBTA, DTB-PEG-azide and TECP (final concentrations are 1 mM, 100 μM, 100 μM and 1 mM respectively). After incubation at room temperature for 1 h with vortexing, pre-chilled acetone (12 mL) was added to the samples and proteins were allowed to precipitate out by storing at −20° C. overnight. The samples were centrifuged at 5,000 g at 4° C. for 10 min, and the supernatant was discarded. The protein pellets labeled by NAIA-5 and IAA were then combined and washed with pre-chilled methanol twice. The protein pellets were then re-dispersed in 1.2% SDS in PBS (w/v), followed by heating at 80° C. for 5 min. Any insoluble solids were discarded by centrifugation at 6,500 g for 5 min, and the supernatant were transferred to PBS solution containing Pierce™ Streptavidin Agarose beads (20349; Thermo Scientific) with final concentration of SDS equal to 0.2% (w/v). The samples and beads were incubated at 4° C. with rotation overnight. […]

With `C#CCCCCNC(=O)COc1ccc2c(ccn2C(=O)C=C)c1` [NAIA-5], the “cellular toxicity (in words)” value with HepG2 cells (10 μM for 1 h) is “no significant cellular toxicity was found”. The IC50 in the series on HepG2 cells (MTT, 1 h incubation, read-out: IC50 (cytotoxicity)) is above 40 µM. The “cell viability (in words)” value with HepG2 cells (treatment for 1 h) is recorded as “no significant changes in viability of HepG2 cells”. Besides, the “off-target labeling onto other amino acids” value in the series on HepG2 cell lysates is on record as “less undesired off-target labeling onto other amino acids as compared to IAA”.

What is called IC50 is the concentration needed to halve the response being measured.
